Data published in patent publication US11229611B2, “Clobazam transdermal delivery system and uses thereof” (TAHO Pharmaceuticals Ltd., priority 2020, dated 2022).
Values after ≈ are worked out from the molar mass of the structure shown.

Assays:
[1] = tested on: isolated human cadaver epidermis; assay: flux through skin of EVA/PIB multilaminate formulations; assay type: in vitro ADME
From the text: In certain embodiments, the adhesive composition contains the HMW and LMW PIB in weight ratios (HMW PIB: LMW PIB) in the range of about 3-40:97-60, in the range of about 5-25:95-75 and in the range of about 10-20:90-80. The ratio of HMW PIE to LMW PIE that provides an optimal adhesive for a specific drug agent will be dependent upon the identity and concentration of agent being delivered. As an example, in one effective embodiment the PIB adhesive includes 5 wt % HMW PIB material (such as OPPANOL L80, LlOO, and L 140 from BASF) and 95 wt % LMW PIB material (Such as OPPANOL BlO, BI 1, B12, and B13 from BASF).
Optionally, modification of flux of the drug through the PIB can be effected by incorporating in the adhesive material such as micronized, crosslinked polyvinylpyrrolidone (PVP), such as CROSPOVIDONE (Kollidon CL-CY from BASF typically with bulk density between 0.2-0.3 g/cm3 and particle size D90 of 10-20 micron). Such PVP improves the permeability of clobazam material through the PIB layer.
Varying the amounts of CROSPOVIDONE in the PIB adhesive would result in fine-tuning the flux of clobazam to desired levels. For example, multilaminate formulations containing different PVP amounts were tested for the effect of such variation on flux through skin. The multilaminate formulations contained 35 wt % of clobazam base in EVA40, an EVA12 as tie layer and PIB adhesive (5:95 L100:B12 PIB) with 12 wt % or 18 wt % PVP were tested. […] A formulation containing 30 wt % clobazam base and 15 wt % PVP was also tested. The flux of clobazam formulation from this formulation was 6.3μg/(cm^2 h). […] PIB polymers are available commercially, e.g., under the tradename VISTANEX™ from Exxon Chemical. The amount of PVP in the resulting adhesive can be about 1 wt % to 30 wt %, about 5 wt % to 25 wt %, about 8 wt % to 20 wt %.
Transdermal flux can be measured with a standard procedure using Franz cells or using an array of formulations. Flux experiments were done on isolated human cadaver epidermis. With Franz cells, in each Franz diffusion cell a disc of epidermis is placed on the receptor compartment. A transdermal delivery system is placed over the diffusion area (1.98 cm^2) in the center of the receptor. The donor compartment is then added and clamped to the assembly. At time 0, receptor solution (between […] and 24 ml, exactly measured) is added into the receptor compartment and the cell maintained at 35° C. This temperature yields a skin surface temperature of 30-32° C. Samples of the receptor compartment are taken periodically to determine the flux through skin and analyzed by HPLC. An alternative way to test flux is to use an array of patches. In testing flux with an array of transdermal miniature patches, formulations are prepared by mixing stock solutions of each of the mixture components of formulation in organic solvents (about 15 wt % solids), followed by a mixing process. The mixtures are then aliquoted onto arrays as 4-mm diameter drops and allowed to dry, leaving behind solid samples or “dots.” (i.e., mini-patches). The miniature patches in the arrays are then tested individually for flux through skin using a permeation array, whose principle of drug flux from a patch formulation through epidermis to a compartment of receptor medium is similar to that of Franz cells (an array of miniature cells). […] Receptor fluid is auto-sampled from each of the permeation wells at regular intervals and then measured by HPLC to determine the flux of the drug.

[2] = solubility and compatibility of clobazam in a variety of excipients; assay type: physicochemical
Procedure: Solubility and compatibility of clobazam were tested in a variety of excipients according to the following functions: (1) alcohols; (2) emollients/oils; (3) esters; (4) fatty acids; (5) fatty acid esters; (6) fatty alcohols; (7) solubilizers; (8) solvents; and (9) surfactants.

[3] = cited from earlier work

CN1C(=O)CC(=O)N(c2ccccc2)c2cc(Cl)ccc21 [clobazam, 7-Chloro-1-methyl-5-phenyl-1,5-dihydro benzo[b][1,4]diazepine-2,4-dione]
average clobazam base flux ([1]; 5:95 L100:B12 PIB adhesive with 20 wt % CROSPOVIDONE): 33.3 μg/(cm^2-h) | flux ([1]; 35 wt % clobazam base in EVA40, EVA12 tie layer, PIB adhesive (5:95 L100:B12) with 12 wt % PVP): 5.4 μg/(cm^2 h) | flux ([1]; 35 wt % clobazam base in EVA40, EVA12 tie layer, PIB adhesive (5:95 L100:B12) with 18 wt % PVP): 7.5 μg/(cm^2 h) | clobazam base average flux ([1]; clobazam 35 wt % in EVA40 drug layer 4-7 mil, PIB adhesive 5 wt % HMW / 95 wt % LMW, 2-3 mil): 5.5 μg/cm^2-h | flux ([1]; formulation with 30 wt % clobazam base and 15 wt % PVP): 6.3 μg/(cm^2 h) | solubility among various alcohols ([2]; in 4-allyl-2-ethoxyphenol): good solubility | solubility among various surfactants, polymers and oils ([2]; in Caprylocaproyl polyoxyl-8 glycerides and transcutol P): some solubility | solubility in solvents ([2]; in DCM, chloroform, DMA, DMI, DMSO and NMP): good solubility | solubility among various fatty acids and fatty acid esters ([2]; in methyl L-lactate, levulinic acid and ethyl levulinate): good solubility | solubility in water ([3]; water at 25° C.): 70 microgram/ml | water Solubility ([3]; water): 164 µg/mL (≈ 545 µM)
